# Measured values: paper PMC7689089, “Regorafenib combined with PD1 blockade increases CD8 T-cell infiltration by inducing CXCL10 expression in hepatocellular carcinoma” (Journal for Immunotherapy of Cancer, 2020)
# System: CXCL10
# Experiment: CXCL10/CXCR3 expression in RIL-175 tumor tissue (RNA-seq, ELISA, RNA-Scope ISH, western blot)
# Assay type: in vivo, mouse
# Conditions: regorafenib alone at 10 mg/kg and 20 mg/kg; 6 hours after treatment
# Experimental: The RNA-Scope assay was performed according to manufacturer’s instructions.[32] Briefly, formaldehyde-fixed and paraffin-embedded human and mouse HCC tissue blocks were cut in 5 µm sections, pretreated for 30 min, following digestion and hybridization at 40°C in a HybEZ oven with both dual labeling probes antimurine CXCR3 probe (Mm-CXCR3; 402511-C2) and CXCL10 (Mm-CXCL10; 408921) or human CXCL10 (Hs-CXCL10; 311851), all from Advanced Cell Diagnostics. Counterstaining was performed using hematoxylin for 10 s.
# (A) Changes induced by combination of regorafenib (10 mg/kg) with anti-PD1 antibody in immune-related pathways from the gene set enrichment analysis (GSEA) using curated gene sets in RIL-175 HCC model (see also online supplemental dataset S1 and figure S2E). (B, C) Changes induced by combination of regorafenib (10 mg/kg) with anti-PD1 antibody in STAT3 and STAT1 activity (B), showing an increased ratio of phosphorylated (p)-STAT1/p-STAT3 (normalized to total STAT1 and STAT3, respectively) by western blot analysis of whole RIL-175 HCC tissue (C) (n=4 mice). […] (J, K) Combination therapy increases CXCL10 protein expression in whole RIL-175 tumor tissue 6 hours and 12 hours after in vivo when regorafenib treatment was used at doses of 10 mg/kg (R10) and 20 mg/kg (R20) (n=3) by western blot analysis (J); quantitative data of CXCL10/β-actin ratios are shown in (K). […]
structure (smiles),measurement,value
CNC(=O)c1cc(Oc2ccc(NC(=O)Nc3ccc(Cl)c(C(F)(F)F)c3)c(F)c2)ccn1 [regorafenib],CXCL10 protein in whole tumor tissue lysate (western blot),increased protein levels
